Data as given in patent US4923885A, “5-amino-1-(4-naphthoylbenzyl)-1,2,3-triazole-4-carboxamides and analogs as antiproliferative agents” (Merck & Co., Inc., priority 1988, dated 1990).
≈ marks a conversion by molar mass, not a printed value.

Experiments:
[1] = system: Normal Human Epidermal Keratinocytes (NHEK); assay: Proliferation assay vs Normal Human Epidermal Keratinocytes (NHEK growth inhibition); type: cell-based; settings: Dulbecco's modified Eagle's medium, 10% fetal calf serum, 37° C., 5% CO2, Giemsa, 650 nm, read-out: ED50 NHEK
Description: In these experiments, NHEK's were cultured in Dulbecco's modified Eagle's medium with 10% fetal calf serum at 37° C., 5% CO2. Each well of a 96 well plate was seeded with 2000 cells in 200 μl of each drug dilution in duplicate. A plate was stopped and fixed for each time point, stained with Giemsa and then read in a Titertek plate reader at 650 nm, and the absorbances were calibrated with known cell numbers on control plates. NHEK's were obtained from Clonetics Corporation at the secondary stage.

[2] = system: nucleotide biosynthesis in normal human epidermal keratinocyte cells; assay: inhibition of nucleotide biosynthesis in normal human epidermal keratinocyte cells in vitro; type: cell-based; design: dose or concentration left out as unconfirmed
Text: It has been known that it is the hyperproliferation of these cells in humans which causes psoriasis.

[3] = cited from earlier work; for effectiveness in treating psoriasis: inhibitors of purine or pyrimidine nucleotide biosynthesis; for side effects: psoriasis treatment; for clearing lesions: psoriasis, experimental use as chemotherapeutic agents

| Compound | IC50 [1] | effectiveness in treating psoriasis [3] | side effects [3] | other results |
| --- | --- | --- | --- | --- |
| NC(=O)c1nnn(Cc2cc(Cl)c(C(=O)c3cccc4ccccc34)c(Cl)c2)c1N [Cl, Cl, CO, α-Naphth, 5-Amino-l-[4-(l-naphthoyl)-3,5-dichlorobenzyl]-l,2,3-triazole-4-carboxamide] | 0.3 µg/mL (≈ 0.681 µM) | – | – | – |
| NC(=O)c1nnn(Cc2cc(Cl)c(Oc3ccc(Cl)c4ccccc34)c(Cl)c2)c1N [Cl, Cl, O, α-Naphth-4-Cl, 5-Amino-l-[4-[(4-chloro-l-naphthalene)oxy]-3,5dichlorobenzyl]-1,2,3-triazole-4-carboxamide] | 0.3 µg/mL (≈ 0.648 µM) | – | – | – |
| NC(=O)c1nnn(Cc2cc(Cl)c(C(=O)c3ccc(Cl)c4ccccc34)c(Cl)c2)c1N [Compound A, 5-amino-l-(4-(4-chloronaphthoyl)-3,5-dichlorobenzyl)-1,2,3-triazole-4-carboxamide] | 0.08 µg/mL (≈ 0.169 µM) | – | – | efficacy in inhibiting nucleotide biosynthesis [2]: inhibiting nucleotide biosynthesis |
| Nc1nc2nc[nH]c2c(=S)[nH]1 [thioguanine] | – | effective in treating the disease | unacceptable side effects due to toxicity | clearing lesions [3]: success in clearing lesions |
| NC(=O)c1nnn(Cc2cc(Cl)c(Cc3ccc(Cl)c4ccccc34)c(Cl)c2)c1N [Cl, Cl, CH2, α-Naphth-4-Cl, 5-Amino-l-[4-[(4-chloro-l-naphthalene)methyl]-3,5dichlorobenzyl]-1,2,3-triazole-4-carboxamide] | 0.3 µg/mL (≈ 0.651 µM) | – | – | – |
| O=c1[nH]cc(F)c(=O)[nH]1 [fluorouracil] | – | effective in treating the disease | unacceptable side effects due to toxicity | – |
| CN(Cc1cnc2nc(N)nc(N)c2n1)c1ccc(C(=O)N[C@@H](CCC(=O)O)C(=O)O)cc1 [methotrexate] | – | effective in treating the disease | unacceptable side effects due to toxicity | – |
| NC(=O)c1nnn(Cc2cc(Cl)c(C(=O)c3ccc(Cl)cc3)c(Cl)c2)c1N [Reference compound] | 0.5 to 1 µg/mL (≈ 1.18 to 2.35 µM) | – | – | – |
| O=C(O)C[C@H](NC(=O)CP(=O)(O)O)C(=O)O [N-phosphonacetyl-L-aspartate] | – | effective in treating the disease | unacceptable side effects due to toxicity | – |
| NC(=O)c1nnn(Cc2cc(Cl)c(C(=O)c3ccc4ccccc4c3)c(Cl)c2)c1N [Cl, Cl, CO, β-Naphth, 5-Amino-1-[4-(2-naphthoyl)-3,5-dichlorobenzyl]-1,2,3-triazole-4-carboxamide] | 1 µg/mL (≈ 2.27 µM) | – | – | – |
| COc1c(C)c2c(c(O)c1C/C=C(\C)CCC(=O)O)C(=O)OC2 [Mycophenolic acid] | – | – | unacceptable side effects | effect on psoriasis ([3]; mycophenolic acid given orally): controls psoriasis by causing remission; clearing lesions [3]: success in clearing lesions |
